8 compounds from patent US9493435B2, “IRE-1α inhibitors” (MannKing Corporation, priority 2009, dated 2016) can be followed below.

Each structure is given as a SMILES string. Where a name gives a salt, the structure may show the parent alone.

Experiment [1] relates to human myeloma RPMI8226 tumor xenografts. Kind of experiment: RPMI8226 xenograft efficacy model. Type of experiment: in vivo, mouse. Particulars: SCID mice bearing RPMI8226 xenografts, 0.75 mg/kg IV twice weekly.
Experimental: SCID mice are implanted with tumor cells (human RPMI8226 myeloma cells) via IP, IV or SC routes based on the results from the xenograft model development studies (above). Mice are treated with compound or mock treated (vehicle) for a period of up to 4-5 weeks. Compound administration can be via IV, IP, PO or SC routes. In some cases, tunicamycin is administered via IP injection in order to stimulate stress in the animal. This stress mimics the stress an animal may undergo during times of tumor growth. The tunicaymycin injection mimics tumor growth during times of stress and permits evaluation of biomarkers which indicate the effectiveness of a compound (such as XBP-1 splicing) by RT-PCR, immunohistochemistry, or Western blots.
Mice are monitored for tumor growth, regression and general health. Tumors are collected and characterized by immunohistochemistry and/or FACS analysis. Tumor growth is measured by calipers, ultrasound, or by abdominal lavage. Biomarkers in the blood or tumor can evaluated (primarily XBP-1 splicing).
Tumor cells are cultured and injected IP, IV (tail vein) or SC (flank) in the mouse using a 21G needle in a volume of approx 100 μL. Mice are treated with compounds or vehicle alone as a control by IV, IP, SC or PO routes 5 days per week for up to 4-5 weeks. Blood is collected via retroorbital bleed (100 μA) at 2 time points (different eyes). […]
Another experiment concerns XBP-1 splicing. Kind of experiment: XBP-1 splicing in vivo in a model of ER stress (tunicamycin-treated SCID mice). Particulars: tunicamycin 1 mg/kg IP, 100, 50 or 25 mg/kg orally, 2 hour exposure, RT-PCR. Details: species or system mouse. The method, then: SCID mice were treated with tunicamycin 1 mg/kg IP. Compound no. 12-4 was administered orally two hours later at one of three doses: 100 mg/kg, 50 mg/kg, or 25 mg/kg (2 hour exposure) in 10% hydroxypropyl-beta-cyclodextrin (HPBCD). The total exposure to tunicamycin was 4 hours, and the total exposure to compound 12-4 was 2 hours.
Livers and kidneys were harvested and total RNA was prepared using Trizol. RT-PCR was performed using murine specific XBP1 primers flanking the 26-nt intron and products were separated on 4% agarose gel. The results are shown in FIG. 1B (liver) and FIG. 1C, in which each lane represents an individual mouse (n=4).

Experiment [2] deals with IRE-1α-mediated XBP-1 splicing in human myeloma MM.1s cells. Description: Cellular XBP-1 splicing assay in myeloma cells (RT-PCR). Type of experiment: cell-based. Particulars: Homo sapiens, MM1.S; average EC50, endogenous XBP-1 splicing in myeloma cells, DTT stress. An outline of the steps:
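Human MM.1s myeloma cells incubated with compound with or without DTT as ER stressor, 2 h total; total RNA extracted and endogenous XBP-1 amplified by RT-PCR with primers flanking the 26-base intron. Ratio of unspliced to spliced XBP-1 quantified to give cellular EC50.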

Experiment [3] deals with human IRE-1α (GST-IRE-1α) (Homo sapiens (Human), UniProt O75460). Description: IRE-1α assay (cleavage of mini-XBP-1 mRNA stem-loop substrate). In kind it is biochemical. Particulars: average IC50 for inhibition of IRE-1α in vitro. In short, it runs like this:
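GST-IRE-1α from baculovirus-infected insect cells, in Hepes pH 7.5 buffer with KOAc, MgCl2, 3 mM DTT and 0.4% PEG. Compound added from 1 mM stock; Cy5-labelled mini-XBP-1 mRNA stem-loop substrate cleaved for one hour at 30° C. Read on a plate reader; percent IRE-1α activity derived.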

human IRE-1α (GST-IRE-1α), sequence (O75460 19-977): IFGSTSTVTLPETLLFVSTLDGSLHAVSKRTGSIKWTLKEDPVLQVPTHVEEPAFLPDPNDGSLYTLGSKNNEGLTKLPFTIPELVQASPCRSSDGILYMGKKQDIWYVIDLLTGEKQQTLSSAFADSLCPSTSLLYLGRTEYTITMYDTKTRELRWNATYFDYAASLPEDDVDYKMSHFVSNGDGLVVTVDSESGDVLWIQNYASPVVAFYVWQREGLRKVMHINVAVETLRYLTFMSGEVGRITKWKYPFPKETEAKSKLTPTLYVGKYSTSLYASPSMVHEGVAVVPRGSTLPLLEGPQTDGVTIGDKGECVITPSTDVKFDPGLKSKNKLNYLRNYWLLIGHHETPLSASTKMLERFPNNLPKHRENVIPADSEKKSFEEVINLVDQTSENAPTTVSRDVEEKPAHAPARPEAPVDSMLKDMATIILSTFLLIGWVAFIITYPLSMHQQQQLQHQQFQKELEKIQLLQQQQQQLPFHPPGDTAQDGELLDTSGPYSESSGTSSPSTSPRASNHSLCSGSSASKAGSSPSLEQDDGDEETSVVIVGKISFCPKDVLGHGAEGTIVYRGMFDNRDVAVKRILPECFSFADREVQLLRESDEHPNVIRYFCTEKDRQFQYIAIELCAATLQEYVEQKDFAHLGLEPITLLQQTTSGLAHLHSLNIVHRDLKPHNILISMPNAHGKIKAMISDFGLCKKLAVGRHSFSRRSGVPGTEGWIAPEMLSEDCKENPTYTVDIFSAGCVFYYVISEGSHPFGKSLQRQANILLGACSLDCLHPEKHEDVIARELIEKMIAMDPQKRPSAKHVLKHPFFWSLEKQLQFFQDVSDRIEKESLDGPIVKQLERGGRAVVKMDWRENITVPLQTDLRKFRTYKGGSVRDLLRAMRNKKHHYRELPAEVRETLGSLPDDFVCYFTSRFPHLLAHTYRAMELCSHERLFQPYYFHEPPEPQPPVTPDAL

As for `CC(C)C[C@H](NC(=O)[C@H](Cc1ccccc1)NC(=O)c1cnccn1)B(O)O` [bortezomib], in experiment [1], the tumor growth entry is reported as “suppression of tumor growth”. With `Cc1nc(-c2ccc3c(C=O)c(O)ccc3c2)sc1C(=O)N1CCN(C)CC1` [Compound 12-4], the “inhibition of XBP-1 splicing in kidney” value in the experiment with XBP-1 splicing (kidney) was “dose-dependent inhibition”. Further, the “inhibition of XBP-1 splicing in liver” value in the experiment with XBP-1 splicing (liver) is listed as “dose-dependent inhibition”. One may read the EC50 as the concentration needed to bring the measured effect to its halfway point. Low values mean higher potency in that assay, high ones lower potency in that assay. Usually IC50 stands for the concentration that inhibits the measured activity by half. The low end stands for greater potency, the high end for weaker potency. In turn, `CC(=O)N(C)C1CCN(c2ccc3ccc(O)c(C=O)c3c2)C1` (stereo not drawn) [Compound 157] came in with an EC50 in experiment [2] of over 10000 nM. Further, in experiment [3], the IC50 was over 1000 nM. For `CN1CCN(c2ccc3c(C=O)c(O)ccc3c2)CC1` [Compound 58, 2-Hydroxy-6-(4-methyl-piperazin-1-yl)-naphthalene-1-carbaldehyde hydrochloride] the same measures were under 10000 nM and over 1000 nM.

For the compound `Cc1nc(-c2ccc3c(C=O)c(O)ccc3c2)sc1C(=O)NC1CCN(C)CC1` [Compound 145], in experiment [2], the EC50 was under 10000 nM. The compound also returned an IC50 in experiment [3] of under 1000 nM. As for `O=Cc1c(O)ccc2cc(N3CCN(Cc4ccccn4)CC3)ccc12` [Compound 96, 2-Hydroxy-6-(4-pyridin-2-ylmethyl-piperazin-1-yl)-naphthalene-1-carbaldehyde], the EC50 in experiment [2] is over 10000 nM. Further, in experiment [3], half-maximal inhibition (IC50) required 1000 nM. For `CC(C)N1CCN(c2ccc3c(C=O)c(O)ccc3c2)CC1` [Compound 99] the same measures were under 10000 nM and over 1000 nM. On to `CN(Cc1ccncc1)C1CCN(c2ccc3c(C=O)c(O)ccc3c2)C1` (stereo not drawn) [Compound 147], for which the EC50 in experiment [2] was over 10000 nM. Moreover, the IC50 in experiment [3] was over 1000 nM.
